# Key:
# EO771 cells = experiment: Tumor cell gene expression (qPCR); format: cell-based, mouse; details: 24 h post-treatment
# Experimental: (§1) For qPCR, cells were lysed with Qiazol, and RNA was extracted using Zymo research Direct-zol RNA isolation kit. cDNA was then made from 1 μg of RNA using iScript cDNA Synthesis Kit (Bio-Rad Life Science, Hercules, Calif.). Run conditions were 95° C. for 10 s, 58° C. for 15 s, 70° C. for 15 s. Samples were run in duplicate on a Bio-rad CFX Real Time thermocycler.
# 4T1 cells [1] = experiment: Tumor cell gene expression (qPCR); format: cell-based, mouse; details: 24 h post-treatment
# Experimental: as §1
# 4T1 cells [2] = experiment: Macrophage migration toward conditioned medium of emodin-treated tumor cells; format: cell-based, mouse; details: increasing concentrations of emodin, 24 h treatment
# Experimental: EO771 or 4T1 cells were treated with 0-50 μM emodin for 24 h. The cells were then washed multiple times with PBS, further cultured, and TCM was collected. The TCM was placed in the bottom chamber of transwell inserts, and 2×10^5 macrophages were seeded into the top chamber in SF DMEM. The cells were incubated at 37° C. with 5% CO2 for 4 h. The membranes were then fixed with 4% paraformaldehyde for 10 min. The cells were removed from the top chamber using cotton swabs, and the cells on the bottom chamber were stained with DAPI (1 μg/mL). The inserts were then cut out, mounted onto slides, and imaged under a Nikon Eclipse E-600 fluorescence microscope (Nikon Inc. Melville, N.Y.) at 20× magnification (5 fields/insert). DAPI stained cells were quantified using ImagePro Plus software.
# H3K27m3 and H3K27ac = experiment: Histone modifications H3K27m3/H3K27ac (western blotting, ChIP assay); format: cell-based, mouse
# Experimental: Following stimulation with IL4 or LPS+IFNγ with or without emodin for varying periods, macrophages were lysed with cell signaling lysis buffer (Millipore) for whole cell lysates. Cytoplasmic and nuclear extracts were prepared using the Epiquik Nuclear Extraction kit (Epigentek, Farmingdale, N.Y.). Total protein was separated on 4-20% Tris-glycine pre-cast gels (Pierce) and transferred onto Nitrocellulose membranes (Bio-Rad Life Science, Hercules, Calif.). The membranes were then probed with HRP conjugated secondary antibodies, and signals were detected using Pierce ECL Western Blotting Substrate (Pierce).
# Macrophages were stimulated with IL4 or LPS+IFNγ for 24 h with or without emodin. They were then fixed in 1% formaldehyde. Excess formaldehyde was quenched with glycine and the cells were collected in PBS by scraping. The cells were lysed (0.5% IGEPAL, 4 mM HEPES) and the nuclei were resuspended in nuclear lysis buffer (1% SDS, 10 mM EDTA, and 50 mM Tris, pH 8.1). The DNA was sheared by sonication using a Diagnode Bioruptor Pico for 15 cycles of 30 s on/30 s off. Then 10 μg chromatin was diluted 1:10 (0.01% SDS, 1.1% Triton X-100, 1.2 mM EDTA, 16.7 mM Tris-HCl, pH 8.1, 167 mM NaCl) and 2% of the input was removed from each sample and saved for analysis. Anti-H3K27m3 or anti-H3K27ac (Abcam) was added to each sample along with 20 μl of protein A+G magnetic beads (Millipore) and the samples were incubated overnight at 4° C. The beads were washed with low salt, high salt, LiCl, and TE wash buffers sequentially and the DNA was eluted off the beads with Proteinase K at 62° C. for 2 h (elution buffer: 200 mM NaCl, 1% SDS and 50 mM Tris). The DNA was then analyzed by real time PCR.
# [3] = tested on: peritoneal macrophages and 4T1 cells; experiment: Tumor cell-macrophage adhesion; format: cell-based, mouse
# Experimental: Tumor cell monolayers (80-90% confluent) and macrophages were treated with emodin (0-25 μM) overnight. The cells were then washed multiple times with PBS, and fresh SF DMEM was added. Macrophages were resuspended with scraping and 5×10^5 cells were seeded onto the tumor cell monolayers. After 1 h the non-adherent cells were washed away, and the adherent cells were resuspened with Trypsin and mild scraping. The total number of cells was counted, and cells were stained with anti-F4/80 FITC (Biolegend). The cells were analyzed on a Beckman Coulter FC500.
# [4] = tested on: mouse peritoneal macrophages; experiment: Phagocytosis assay (FITC-labeled E. coli bioparticles); format: cell-based
# Experimental: Macrophages were seeded into a 96-well plate (2×10^5 cells/well) and were stimulated with IL4 or LPS+IFNγ for 24 h with or without emodin. Phagocytotic activity was measured using a Vybrant Phagocytosis assay kit (Molecular Probes). The medium was removed and the cells were washed with PBS. The fluorescent BioParticle suspension was added to the cells and incubated up to 6 h. After the indicated time, the BioParticle suspension was removed, any extracellular fluorescence was quenched with trypan blue, and the intracellular fluorescence was detected using a Spectramax M5 microplate reader (Molecular Devices, Sunnyvale, Calif.).
# [5] = tested on: mouse peritoneal macrophages; experiment: qPCR of macrophage activation genes; format: cell-based
# Experimental: Three milliliters of 4% Thioglycolate solution was injected intraperitoneally into 8-12 week old C57BL/6 mice. Three days later, macrophages were collected by lavaging the peritoneal cavity with PBS. The cells were then resuspended in DMEM containing 10% FBS. After 2 h, non-adherent cells were washed away with PBS and the macrophages were cultured overnight in serum free DMEM. The macrophages were then treated with DMEM containing IL4 (10 ng/ml, BioAbChem Inc. Ladson, S.C.) or LPS (100 ng/ml, Sigma-Aldrich) and IFNγ (20 ng/ml, BioAbChem Inc) with or without emodin. Emodin was purchased from Nanjing Langze Medicine and Technology Co. Ltd (Nanjing, China) and dissolved in DMSO at a concentration of 10 mg/ml as a stock solution.
# as §1, with “macrophages” for “cells”, “Qiazol” for “Qiazol,”, “microgram” for “μg”, “Science).” for “Science, Hercules, Calif.).”
compound,measurement,setting,value
Cc1cc(O)c2c(c1)C(=O)c1cc(O)cc(O)c1C2=O [emodin],"expression of MCP1, CSF1, and CSF2",EO771 cells,significantly inhibited
same,tumor cell expression of Thy1,EO771 cells,significantly inhibited
same,"expression of MCP1, CSF1, and CSF2",4T1 cells [1],significantly inhibited
same,tumor cell expression of Thy1,4T1 cells [1],significantly inhibited
same,macrophage migration toward TCM from emodin-treated tumor cells,4T1 cells [2],decrease in macrophage migration
same,"IL4-induced decrease of H3K27m3 in the promoter of IRF4, Arg1 and YM1 genes",H3K27m3 and H3K27ac; ChIP assay,reversed
same,"LPS/IFNγ-induced decrease of H3K27m3 in the promoter of iNOS, TNFα and IL6 genes",H3K27m3 and H3K27ac; ChIP assay,attenuated
same,"induced increase of H3K27ac in promoters (LPS/IFNγ: iNOS, TNFα, IL6; IL4: IRF4, YM1)",H3K27m3 and H3K27ac; ChIP assay,suppressed
same,global expression of H3K27m3 or H3K27ac,"H3K27m3 and H3K27ac; western blotting, LPS/IFNγ or IL4, emodin 50 μM 24 h",no effect
same,adhesion of macrophages to a monolayer of tumor cells,[3]; emodin treatment of both macrophages and tumor cells,decreased the adhesion even further
same,adhesion of macrophages to a monolayer of tumor cells,[3]; emodin treatment of either macrophages or tumor cells,significantly inhibited
same,inhibition of bioparticle uptake,"[4]; IL4 or LPS/IFNγ stimulated macrophages, emodin 50 μM 24 h",~2 fold
same,phagocytic activity of naïve cells,"[4]; emodin alone, 6 h time point",increase phagocytic activity
same,"expression of polarization markers iNOS, Arg1 and YM1 in naïve macrophages","[5]; emodin 25 or 50 μM, 24 h",no effects
same,"expression of M1 genes TNFα, CXCL2 and CXCL10, and M2 gene Mrc1","[5]; qPCR, LPS/IFNγ vs IL4 settings",inversely regulated
same,expression of M2 genes Arg1 and Chi3I3,"[5]; qPCR, under IL4 stimulation",inhibited
same,expression of receptors TLR4 and CSFr1,"[5]; qPCR, under LPS/IFNγ or IL4 stimulation, respectively",inhibited the expression
same,"expression of IL1β, iNOS, IL6, MMP2 and 9","[5]; qPCR, under LPS/IFNγ stimulation",inhibited the expression
same,"expression of IRF5, SOCS1 and CCL2","[5]; qPCR, under both IL4 and LPS stimulation",inhibited the expression
